{"source": "ChEMBL document CHEMBL1150132", "about": "“Five new discodermolide analogues from the marine sponge Discodermia species” (J Nat Prod, 2002)", "key": {"[1]": {"system": "A549", "assay": "Cytotoxicity against human A549 cells", "format": "functional, cell-based"}, "[2]": {"system": "P388", "assay": "Cytotoxicity against mouse P388 cells after 48 hrs by MTT assay", "format": "functional, cell-based", "conditions": "P388, 48 h"}}}
{"smiles": "C=C/C=C\\[C@H](C)[C@H](OC(N)=O)[C@@H](C)[C@H](O)[C@@H](C)C/C(C)=C\\[C@H](C)[C@@H](O)[C@@H](C)/C=C\\[C@@H](O)C[C@H](O)[C@H](C)[C@H](O)[C@@H](C)C(=O)OC", "values": [{"measurement": "IC50", "setting": "[1]", "result": 0.074, "unit": "µM"}, {"measurement": "IC50", "setting": "[2]", "result": 0.0658, "unit": "µM"}]}
{"smiles": "C=C/C=C\\[C@H](C)[C@H](OC(N)=O)[C@@H](C)[C@H](O)[C@@H](C)C/C(C)=C\\[C@H](C)[C@@H](O)[C@@H](C)/C=C\\[C@@H](O)C[C@@H]1OC(=O)C[C@@H](O)[C@H]1C", "values": [{"measurement": "IC50", "setting": "[1]", "result": 0.12, "unit": "µM"}, {"measurement": "IC50", "setting": "[2]", "result": 0.172, "unit": "µM"}]}
{"smiles": "C=C/C=C\\[C@H](C)[C@H](OC(N)=O)[C@@H](C)[C@H](O)[C@@H](C)C/C(C)=C\\[C@H](C)[C@@H](O)[C@@H](C)/C=C\\[C@@H](O)C[C@@H]1OC(=O)[C@@H](C)[C@@H](O)[C@H]1C", "values": [{"measurement": "IC50", "setting": "[1]", "result": 0.067, "unit": "µM"}, {"measurement": "IC50", "setting": "[2]", "result": 0.134, "unit": "µM"}]}
{"smiles": "C=C/C=C\\[C@H](C)[C@H](O)[C@@H](C)[C@H](O)[C@@H](C)C/C(C)=C\\[C@H](C)[C@@H](O)[C@@H](C)/C=C\\[C@@H](O)C[C@@H]1OC(=O)[C@H](C)[C@@H](O)[C@H]1C", "values": [{"measurement": "IC50", "setting": "[1]", "result": 0.074, "unit": "µM"}, {"measurement": "IC50", "setting": "[2]", "result": 0.128, "unit": "µM"}]}
{"smiles": "C=C/C=C\\C(C)C(OC(N)=O)C(C)C(O)C(C)/C=C(\\C)C1C(C)C(O)C(C)C1/C=C/C[C@@H]1OC(=O)[C@H](C)[C@@H](O)[C@@H]1C", "note": "(stereo partly specified)", "values": [{"measurement": "IC50", "setting": "[1]", "result": 4.49, "unit": "µM"}, {"measurement": "IC50", "setting": "[2]", "result": 5.04, "unit": "µM"}]}
{"smiles": "C=C/C=C\\[C@H](C)[C@H](OC(N)=O)[C@@H](C)[C@H](O)[C@@H](C)C/C(C)=C\\[C@H](C)[C@@H](O)[C@@H](C)/C=C\\[C@@H](O)C[C@@H]1OC(=O)[C@H](C)[C@@H](O)[C@H]1C", "note": "[DISERMOLIDE]", "values": [{"measurement": "IC50", "setting": "[1]", "result": 0.0135, "unit": "µM"}]}
